Laboratory results taken from patent publication US20260070945A1, “MACROCYCLIC IMMUNOMODULATORS” (Bristol-Myers Squibb Company, priority 2022, published 2026).
Where a SMILES comes first, the peptide text is derived from it. Bridges are numbered along the chain shown (N, C = ends). [ ]: non-standard residue; d: D form. The star is where a group is joined. ξ: configuration not given here. Phe(4-CONH2) = NC(=O)c1ccc(C[C@H](N)C(=O)O)cc1; Phe(4-COOH) = N[C@@H](Cc1ccc(C(=O)O)cc1)C(=O)O; Bip = N[C@@H](Cc1ccc(-c2ccccc2)cc1)C(=O)O; Phe(3-Me) = Cc1cccc(C[C@H](N)C(=O)O)c1; Val(3-OH) = CC(C)(O)[C@H](N)C(=O)O; 4Pal = N[C@@H](Cc1ccncc1)C(=O)O; Cha = N[C@@H](CC1CCCCC1)C(=O)O; Cit = NC(=O)NCCC[C@H](N)C(=O)O; Ile(3ξ) = CCC(C)[C@H](N)C(=O)O; Thr(3ξ) = CC(O)[C@H](N)C(=O)O; Carboxymethyl = O=C(O)C*; NMeA = CN[C@@H](C)C(=O)O; Aun = NCCCCCCCCCCC(=O)O; Dab = NCC[C@H](N)C(=O)O; AEEA = NCCOCCOCC(=O)O

molecular target: T1, PD-1/PD-L1 interaction (PE-labeled human PD-L1-Ig binding to Jurkat cell line over-expressing human PD-1) (Homo sapiens, UniProt Q15116); experiment: Jurkat-PD-1 Cell Binding High-Content Screening Assay (CBA); conditions: PE-labeled PD-L1-Ig 20 nM final, Jurkat-hPD-1 cells; read-out: Jurkat HPD1 PDL1 IC50
T1 construct: expressed in transfected cells; host or cells: Jurkat
Outline: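 Binding of 20 nM (final) PE-tagged PD-L1-Ig to compound-pretreated Jurkat-hPD-1 cells was measured by high-content imaging after 1 h. Pretreatment ran 2 h at 37 °C in DMEM with 10% fetal calf serum.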

T1 sequence (Q15116 25-288): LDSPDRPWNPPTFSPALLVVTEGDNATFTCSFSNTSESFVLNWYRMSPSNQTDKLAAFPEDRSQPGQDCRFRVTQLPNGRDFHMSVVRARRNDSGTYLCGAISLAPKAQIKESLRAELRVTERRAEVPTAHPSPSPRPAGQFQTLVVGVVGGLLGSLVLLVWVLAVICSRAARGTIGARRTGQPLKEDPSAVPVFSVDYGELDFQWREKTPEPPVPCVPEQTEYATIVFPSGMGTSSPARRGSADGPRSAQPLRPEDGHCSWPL

Which IC50 does the source give for `CC(C)C[C@@H]1NC(=O)[C@H](Cc2c[nH]c3ccccc23)NC(=O)[C@H](CC(=O)O)NC(=O)[C@H](Cc2ccc(OCC(=O)O)cc2)NC(=O)[C@H](Cc2ccc(OCC(=O)O)cc2)NC(=O)CSC[C@@H](C(=O)NCCOCCOCC(=O)NCCCCCCCCCCC(=O)O)NC(=O)[C@H](CCCNC(N)=O)NC(=O)[C@H](C(C)(C)O)NC(=O)[C@H](CC2CCCCC2)NC(=O)[C@H](CCN)NC(=O)[C@@H](CC(C)C)NC(=O)[C@H](C)N(C)C(=O)[C@H](C(C)C)NC(=O)[C@H](Cc2ccc(-c3ccccc3)cc2)NC1=O` [Example 2458] ({CH2CO}-Y(Carboxymethyl)Y(Carboxymethyl)DWL[Bip]V[NMeA][dL][Dab][Cha][Val(3-OH)][Cit]C[AEEA][Aun]-OH; thioether N-14) here?
The IC50 was 22.1 nM.

How did the IC50 turn out when `CC(=O)NCCCC[C@@H]1NC(=O)[C@H](C(C)(C)O)NC(=O)[C@H](CC2CCCCC2)NC(=O)[C@H](CCN)NC(=O)[C@@H](CC(C)C)NC(=O)[C@H](C)N(C)C(=O)[C@H](CCC(N)=O)NC(=O)[C@H](Cc2ccc(-c3ccccc3)cc2)NC(=O)[C@H](CC(C)C)NC(=O)[C@H](Cc2c[nH]c3ccccc23)NC(=O)[C@H](CC(=O)O)NC(=O)[C@H](Cc2ccc(C(=O)O)cc2)NC(=O)[C@H](Cc2ccc(OCC(=O)O)cc2)NC(=O)CSC[C@@H](C(=O)NCCOCCOCC(=O)NCCCCCCCCCCC(=O)O)NC1=O` [Example 2459] ({CH2CO}-Y(Carboxymethyl)[Phe(4-COOH)]DWL[Bip]Q[NMeA][dL][Dab][Cha][Val(3-OH)]K(Ac)C[AEEA][Aun]-OH; thioether N-14) was run?
Its IC50 is 45.1 nM.

Which IC50 does the source give for `CC(=O)NCCCC[C@@H]1NC(=O)[C@H](C(C)(C)O)NC(=O)[C@H](CC2CCCCC2)NC(=O)[C@H](CCN)NC(=O)[C@@H](CC(C)C)NC(=O)[C@H](C)N(C)C(=O)[C@H](C(C)C)NC(=O)[C@H](Cc2ccc(-c3ccccc3)cc2)NC(=O)[C@H](CC(C)C)NC(=O)[C@H](Cc2c[nH]c3ccccc23)NC(=O)[C@H](CC(=O)O)NC(=O)[C@H](Cc2ccc(C(=O)O)cc2)NC(=O)[C@H](Cc2ccc(OCC(=O)O)cc2)NC(=O)CSC[C@@H](C(=O)NCCOCCOCC(=O)NCCCCCCCCCCC(=O)O)NC1=O` [Example 2460] ({CH2CO}-Y(Carboxymethyl)[Phe(4-COOH)]DWL[Bip]V[NMeA][dL][Dab][Cha][Val(3-OH)]K(Ac)C[AEEA][Aun]-OH; thioether N-14) here?
Its IC50 is 14.9 nM.

Which IC50 does the source give for `Cc1cccc(C[C@@H]2NC(=O)[C@H](CC(=O)O)NC(=O)[C@H](Cc3ccc(C(=O)O)cc3)NC(=O)[C@H](Cc3ccncc3)NC(=O)CSC[C@@H](C(=O)NCCOCCOCC(=O)NCCCCCCCCCCC(=O)O)NC(=O)[C@H](CO)NC(=O)[C@H](C(C)(C)O)NC(=O)[C@H](CC3CCCCC3)NC(=O)[C@H](CCN)NC(=O)[C@@H](CC(C)C)NC(=O)[C@H](C)N(C)C(=O)[C@H](Cc3ccc(OCC(=O)O)cc3)NC(=O)[C@H](Cc3ccc(-c4ccccc4)cc3)NC(=O)[C@H](Cc3ccc(OCC(=O)O)cc3)NC2=O)c1` [Example 2463] ({CH2CO}-[4Pal][Phe(4-COOH)]D[Phe(3-Me)]Y(Carboxymethyl)[Bip]Y(Carboxymethyl)[NMeA][dL][Dab][Cha][Val(3-OH)]SC[AEEA][Aun]-OH; thioether N-14) here?
Its IC50 is 69.3 nM.

How did the IC50 turn out when `Cc1cccc(C[C@@H]2NC(=O)[C@H](CC(=O)O)NC(=O)[C@H](Cc3ccc(C(=O)O)cc3)NC(=O)[C@H](Cc3ccncc3)NC(=O)CSC[C@@H](C(=O)NCCOCCOCC(=O)NCCCCCCCCCCC(=O)O)NC(=O)[C@H](Cc3cnc[nH]3)NC(=O)[C@H](C(C)(C)O)NC(=O)[C@H](CC3CCCCC3)NC(=O)[C@H](CCN)NC(=O)[C@@H](CC(C)C)NC(=O)[C@H](C)N(C)C(=O)[C@H](Cc3ccc(OCC(=O)O)cc3)NC(=O)[C@H](Cc3ccc(-c4ccccc4)cc3)NC(=O)[C@H](Cc3ccc(OCC(=O)O)cc3)NC2=O)c1` [Example 2464] ({CH2CO}-[4Pal][Phe(4-COOH)]D[Phe(3-Me)]Y(Carboxymethyl)[Bip]Y(Carboxymethyl)[NMeA][dL][Dab][Cha][Val(3-OH)]HC[AEEA][Aun]-OH; thioether N-14) was run?
The IC50 was 46 nM.

Which IC50 does the source give for `Cc1cccc(C[C@@H]2NC(=O)[C@H](CC(=O)O)NC(=O)[C@H](Cc3ccc(OCC(=O)O)cc3)NC(=O)[C@H](CCN)NC(=O)CSC[C@@H](C(=O)N[C@@H](CCN)C(=O)NCCCCCCCCCCC(=O)O)NC(=O)[C@H](CO)NC(=O)[C@H](C(C)(C)O)NC(=O)[C@H](CC3CCCCC3)NC(=O)[C@H](Cc3c[nH]cn3)NC(=O)[C@@H](CC(C)C)NC(=O)[C@H](C)N(C)C(=O)[C@H](Cc3ccc(OCC(=O)O)cc3)NC(=O)[C@H](Cc3ccc(-c4ccccc4)cc3)NC(=O)[C@H](Cc3ccc(OCC(=O)O)cc3)NC2=O)c1` [Example 2465] ({CH2CO}-[Dab]Y(Carboxymethyl)D[Phe(3-Me)]Y(Carboxymethyl)[Bip]Y(Carboxymethyl)[NMeA][dL]H[Cha][Val(3-OH)]SC[Dab][Aun]-OH; thioether N-14) here?
The IC50 was 70.2 nM.

For `Cc1cccc(C[C@@H]2NC(=O)[C@H](CC(=O)O)NC(=O)[C@H](Cc3ccc(OCC(=O)O)cc3)NC(=O)[C@H](Cc3ccncc3)NC(=O)CSC[C@@H](C(=O)N[C@@H](CCN)C(=O)NCCCCCCCCCCC(=O)O)NC(=O)[C@H](CO)NC(=O)[C@H](C(C)(C)O)NC(=O)[C@H](CC3CCCCC3)NC(=O)[C@H](Cc3c[nH]cn3)NC(=O)[C@@H](CC(C)C)NC(=O)[C@H](C)N(C)C(=O)[C@H](Cc3ccc(OCC(=O)O)cc3)NC(=O)[C@H](Cc3ccc(-c4ccccc4)cc3)NC(=O)[C@H](Cc3ccc(OCC(=O)O)cc3)NC2=O)c1` [Example 2466] ({CH2CO}-[4Pal]Y(Carboxymethyl)D[Phe(3-Me)]Y(Carboxymethyl)[Bip]Y(Carboxymethyl)[NMeA][dL]H[Cha][Val(3-OH)]SC[Dab][Aun]-OH; thioether N-14), which IC50 is on record?
Its IC50 is 54.8 nM.

With `Cc1cccc(C[C@@H]2NC(=O)[C@H](CC(=O)O)NC(=O)[C@H](Cc3ccc(OCC(=O)O)cc3)NC(=O)[C@H](Cc3ccncc3)NC(=O)CSC[C@@H](C(=O)N[C@@H](CCN)C(=O)NCCCCCCCCCCC(=O)O)NC(=O)[C@H](Cc3cnc[nH]3)NC(=O)[C@H](C(C)(C)O)NC(=O)[C@H](CC3CCCCC3)NC(=O)[C@H](CCN)NC(=O)[C@@H](CC(C)C)NC(=O)[C@H](C)N(C)C(=O)[C@H](Cc3ccc(OCC(=O)O)cc3)NC(=O)[C@H](Cc3ccc(-c4ccccc4)cc3)NC(=O)[C@H](Cc3ccc(OCC(=O)O)cc3)NC2=O)c1` [Example 2467] ({CH2CO}-[4Pal]Y(Carboxymethyl)D[Phe(3-Me)]Y(Carboxymethyl)[Bip]Y(Carboxymethyl)[NMeA][dL][Dab][Cha][Val(3-OH)]HC[Dab][Aun]-OH; thioether N-14) as the compound, how does the IC50 read?
The IC50 was 161 nM.

`Cc1cccc(C[C@@H]2NC(=O)[C@H](CC(=O)O)NC(=O)[C@H](Cc3ccc(OCC(=O)O)cc3)NC(=O)[C@H](C(C)O)NC(=O)CSC[C@@H](C(=O)N[C@@H](CCN)C(=O)NCCOCCOCC(=O)NCCCCCCCCCCC(=O)O)NC(=O)[C@H](C(C)O)NC(=O)[C@H](C(C)(C)O)NC(=O)[C@H](CC3CCCCC3)NC(=O)[C@H](CCN)NC(=O)[C@@H](CC(C)C)NC(=O)[C@H](C)N(C)C(=O)[C@H](Cc3ccc(OCC(=O)O)cc3)NC(=O)[C@H](Cc3ccc(-c4ccccc4)cc3)NC(=O)[C@H](Cc3ccc(OCC(=O)O)cc3)NC2=O)c1` (stereo partly drawn) [Example 2468] ({CH2CO}-[Thr(3ξ)]Y(Carboxymethyl)D[Phe(3-Me)]Y(Carboxymethyl)[Bip]Y(Carboxymethyl)[NMeA][dL][Dab][Cha][Val(3-OH)][Thr(3ξ)]C[Dab][AEEA][Aun]-OH; thioether N-14) was tested. Which IC50 did it give?
The IC50 was 22.3 nM.

With `Cc1cccc(C[C@@H]2NC(=O)[C@H](CC(=O)O)NC(=O)[C@H](Cc3ccc(OCC(=O)O)cc3)NC(=O)[C@H](C(C)O)NC(=O)CSC[C@@H](C(=O)N[C@@H](CCN)C(=O)NCCOCCOCC(=O)NCCCCCCCCCCC(=O)O)NC(=O)[C@H](CO)NC(=O)[C@H](C(C)(C)O)NC(=O)[C@H](CC3CCCCC3)NC(=O)[C@H](CCN)NC(=O)[C@@H](CC(C)C)NC(=O)[C@H](C)N(C)C(=O)[C@H](Cc3ccc(OCC(=O)O)cc3)NC(=O)[C@H](Cc3ccc(-c4ccccc4)cc3)NC(=O)[C@H](Cc3ccc(OCC(=O)O)cc3)NC2=O)c1` (stereo partly drawn) [Example 2469] ({CH2CO}-[Thr(3ξ)]Y(Carboxymethyl)D[Phe(3-Me)]Y(Carboxymethyl)[Bip]Y(Carboxymethyl)[NMeA][dL][Dab][Cha][Val(3-OH)]SC[Dab][AEEA][Aun]-OH; thioether N-14) as the compound, how does the IC50 read?
Its IC50 is 25.3 nM.

Which IC50 does the source give for `Cc1cccc(C[C@@H]2NC(=O)[C@H](CC(=O)O)NC(=O)[C@H](Cc3ccc(OCC(=O)O)cc3)NC(=O)[C@H](C(C)O)NC(=O)CSC[C@@H](C(=O)N[C@@H](CCN)C(=O)NCCOCCOCC(=O)NCCCCCCCCCCC(=O)O)NC(=O)[C@H](Cc3cnc[nH]3)NC(=O)[C@H](C(C)(C)O)NC(=O)[C@H](CC3CCCCC3)NC(=O)[C@H](CCN)NC(=O)[C@@H](CC(C)C)NC(=O)[C@H](C)N(C)C(=O)[C@H](Cc3ccc(OCC(=O)O)cc3)NC(=O)[C@H](Cc3ccc(-c4ccccc4)cc3)NC(=O)[C@H](Cc3ccc(OCC(=O)O)cc3)NC2=O)c1` (stereo partly drawn) [Example 2470] ({CH2CO}-[Thr(3ξ)]Y(Carboxymethyl)D[Phe(3-Me)]Y(Carboxymethyl)[Bip]Y(Carboxymethyl)[NMeA][dL][Dab][Cha][Val(3-OH)]HC[Dab][AEEA][Aun]-OH; thioether N-14) here?
Its IC50 is 8.7 nM.

With `CCC(C)[C@@H]1NC(=O)[C@H](Cc2ccc(-c3ccccc3)cc2)NC(=O)[C@H](Cc2ccc(C(N)=O)cc2)NC(=O)[C@H](Cc2cccc(C)c2)NC(=O)[C@H](CC(=O)O)NC(=O)[C@H](Cc2ccc(OCC(=O)O)cc2)NC(=O)[C@H](C(C)O)NC(=O)CSC[C@@H](C(=O)N[C@@H](CCN)C(=O)NCCOCCOCC(=O)NCCCCCCCCCCC(=O)O)NC(=O)[C@H](C(C)O)NC(=O)[C@H](C(C)(C)O)NC(=O)[C@H](CC2CCCCC2)NC(=O)[C@H](CCN)NC(=O)[C@@H](CC(C)C)NC(=O)[C@H](C)N(C)C1=O` (stereo partly drawn) [Example 2471] ({CH2CO}-[Thr(3ξ)]Y(Carboxymethyl)D[Phe(3-Me)][Phe(4-CONH2)][Bip][Ile(3ξ)][NMeA][dL][Dab][Cha][Val(3-OH)][Thr(3ξ)]C[Dab][AEEA][Aun]-OH; thioether N-14) as the compound, how does the IC50 read?
Its IC50 is 9.3 nM.
